Measurements published in US12291515B2, “Pyrrolidine derivative and use thereof” (Rushi Biotech (Hangzhou) Co., Ltd, priority 2021, dated 2025).

Columns and labels:
Format in all cases: cell-based
[1] = test system: Human lung adenocarcinoma cell A549; assay: CCK-8 cell proliferation assay, A549; conditions: A549 cells, CCK-8, 24 hrs with drug, OD 450 nm
Protocol: (§1) The effect of samples on the proliferation of human tumor cells in vitro was determined by CCK-8 cell proliferation assay.
(§2) The cells were assayed through a method including the following steps:
(§3) 1) The cells were digested, counted, and prepared into a cell suspension in a corresponding culture medium (Table 1) (5×10^4 cells/ml for CFPAC-1 and RPMI 8226, and 3.5×10^4 cells/ml for rest cells). The cell suspension was added to each well of a 96-well plate in 100 μl well.
(§4) 2) Then the 96-well plate was incubated for 24 hrs in an incubator at 37° C. and 5% CO2.
(§5) 3) The drug was diluted with the culture medium to the required working concentration. 100 μl of the corresponding drug containing medium was added to each well. A negative control group (added with drug-free culture medium) was also set.
(§6) 4) Then the 96-well plate was incubated for 24 hrs in an incubator at 37° C. and 5% CO2.
(§7) 5) The 96-well plate was stained with CCK-8, and The OD value was determined at λ=450 nm.
(§8) a) 10 μl of CCK-8 was added to each well, and incubated in the incubator for another 2-3 hrs.
(§9) b) The content was mixed uniformly by shaking gently on a shaker for 10 min, and the bubbles in the 96-well plate were removed.
(§10) 6) The inhibition rate in each group was calculated.

[2] = test system: Human esophageal cancer cell TE-1; assay: CCK-8 cell proliferation assay, TE-1; conditions: TE-1 cells, CCK-8, 24 hrs with drug, OD 450 nm
Protocol: as §1, §2, §3, §4, §5, §6, §7, §8, §9, §10

[3] = test system: Human pancreatic cancer cell CFPAC-1; assay: CCK-8 cell proliferation assay, CFPAC-1; conditions: CFPAC-1 cells, CCK-8, 24 hrs with drug, OD 450 nm
Protocol: as §1, §2, §3, §4, §5, §6, §7, §8, §9, §10

[4] = test system: Human colon cancer cell HCT-116; assay: CCK-8 cell proliferation assay, HCT116; conditions: HCT116 cells, CCK-8, 24 hrs with drug, OD 450 nm
Protocol: as §1, §2, §3, §4, §5, §6, §7, §8, §9, §10

[5] = test system: Human hepatoma cell HepG2; assay: CCK-8 cell proliferation assay, HepG2; conditions: HepG2 cells, CCK-8, 24 hrs with drug, OD 450 nm
Protocol: as §1, §2, §3, §4, §5, §6, §7, §8, §9, §10

[6] = test system: Human multiple myeloma cell RPMI 8226; assay: CCK-8 cell proliferation assay, RPMI8226; conditions: RPMI8226 cells, CCK-8, 24 hrs with drug, OD 450 nm
Protocol: as §1, §2, §3, §4, §5, §6, §7, §8, §9, §10

[7] = test system: Human gastric cancer cell MKN45; assay: CCK-8 cell proliferation assay, MKN-45; conditions: MKN-45 cells, CCK-8, 24 hrs with drug, OD 450 nm
Protocol: as §1, §2, §3, §4, §5, §6, §7, §8, §9, §10

| SMILES | IC50 [1] [nM] | IC50 [2] [nM] | IC50 [3] [nM] | IC50 [4] [nM] | IC50 [5] [nM] | IC50 [6] [nM] | IC50 [7] [nM] |
| --- | --- | --- | --- | --- | --- | --- | --- |
| O=C(NCCCCCC1CCN(C(=O)c2cccs2)C1)Nc1ccnc(F)c1 (centres unmarked) [BSS-TP019] | 72 | 132 | 49 | 39 | 85 | 44 | 71 |
| O=C(NCCCCCC1CCN(C(=O)C2CCCN2)C1)Nc1ccnc(F)c1 (centres unmarked) [BSS-TP020] | 93 | 91 | 34 | 47 | 49 | 33 | 52 |
| O=C(NCCCCCC1CCN(C(=O)c2ccccc2)C1)Nc1cc(F)nc(F)c1 (centres unmarked) [BSS-TP021] | 33 | 65 | 31 | 77 | 42 | 42 | 65 |
| O=C(NCCCCCC1CCN(C(=O)c2ccccc2)C1)Nc1cccnc1 (centres unmarked) [BSS-TP023, 1-(5-(1-(benzoyl)pyrrolidin-3-yl)pentyl)-2-(3-pyridinyl)urea] | 53 | 102 | 46 | 69 | 72 | 42 | 76 |
| O=C(NCCCCCC1CCN(C(=O)c2cccs2)C1)Nc1cccnc1 (centres unmarked) [BSS-TP024, 1-(5-(1-(2-thienylformyl)pyrrolidin-3-yl)pentyl)-2-(3-pyridinyl)urea] | 59 | 111 | 39 | 73 | 74 | 49 | 81 |
| O=C(NCCCCCC1CCN(C(=O)c2cc3ccccc3[nH]2)C1)Nc1ccncc1 (centres unmarked) [BSS-TP025, 1-(5-(1-(2-indolylformyl)pyrrolidin-3-yl)pentyl)-2-(4-pyridinyl)urea] | 62 | 65 | 37 | 54 | 77 | 40 | 53 |
| O=C(NCCCCCC1CCN(C(=O)c2cc3ccccc3o2)C1)Nc1ccncc1 (centres unmarked) [BSS-TP026, 1-(5-(1-(2-benzofurylformyl)pyrrolidin-3-yl)pentyl)-2-(4-pyridinyl)urea] | 69 | 72 | 42 | 92 | 83 | 51 | 71 |
| O=C(NCCCCCC1CCN(C(=O)C2Cc3ccccc3O2)C1)Nc1ccncc1 (centres unmarked) [BSS-TP027, 1-(5-(1-(2-benzotetrahydrofurylformyl)pyrrolidin-3-yl)pentyl)-2-(4-pyridinyl)urea] | 88 | 93 | 59 | 92 | 102 | 55 | 65 |
| O=C(NCCCCCC1CCN(C(=O)c2ccco2)C1)Nc1cccnc1 (centres unmarked) [BSS-TP028, 1-(5-(1-(furoyl)pyrrolidin-3-yl)pentyl)-2-(3-pyridinyl)urea] | 41 | 57 | 31 | 63 | 59 | 42 | 44 |
| O=C(NCCCCCC1CCN(C(=O)c2occc2F)C1)Nc1ccncc1 (centres unmarked) [BSS-TP030] | 42 | 60 | 40 | 62 | 63 | 46 | 57 |
| O=C(NCCCCCC1CCN(C(=O)c2[nH]ccc2F)C1)Nc1ccncc1 (centres unmarked) [BSS-TP031] | 59 | 68 | 33 | 53 | 51 | 39 | 45 |
| COc1cccc(OC)c1C(=O)N1CCC(CCCCCNC(=O)Nc2cc(F)nc(F)c2)C1 (centres unmarked) [BSS-TP032] | 73 | 117 | 39 | 69 | 99 | 58 | 74 |
| COc1cccc(OC)c1C(=O)N1CCC(CCCCCNC(=O)Nc2cccnc2)C1 (centres unmarked) [BSS-TP033, 1-(5-(1-(2,6-dimethoxybenzoyl)pyrrolidin-3-yl)pentyl)-2-(3-pyridinyl) urea] | 64 | 87 | 56 | 72 | 82 | 53 | 65 |
| O=C(NCCCCCC1CCN(C(=O)c2ccco2)C1)Nc1cc(F)nc(F)c1 (centres unmarked) [BSS-TP035] | 39 | 73 | 35 | 66 | 81 | 29 | 47 |

Now from value to compound:

| IC50 [1] [nM] | IC50 [2] [nM] | IC50 [3] [nM] | IC50 [4] [nM] | IC50 [5] [nM] | IC50 [6] [nM] | IC50 [7] [nM] | SMILES |
| --- | --- | --- | --- | --- | --- | --- | --- |
| 58 | 94 | 42 | 78 | 126 | 49 | 53 | O=C(NCCCCCC1CCN(C(=O)c2cc3ccccc3o2)C1)Nc1cc(F)nc(F)c1 (centres unmarked) [BSS-TP036] |
| 46 | 73 | 25 | 71 | 60 | 38 | 47 | O=C(NCCCCC[C@H]1CCN(C(=O)c2cccs2)C1)Nc1ccncc1 [BSS-TP039, (S)-1-(5-(1-(2-thienylformyl)pyrrolidin-3-yl)pentyl)-2-(4-pyridinyl)urea] |
| 43 | 65 | 29 | 52 | 49 | 24 | 31 | O=C(NCCCCC[C@@H]1CCN(C(=O)c2cccs2)C1)Nc1ccncc1 [BSS-TP040, (R)-1-(5-(1-(2-thienylformyl)pyrrolidin-3-yl)pentyl)-2-(4-pyridinyl)urea] |
| 35 | 64 | 29 | 22 | 50 | 21 | 39 | O=C(NCCCCCCC1CCN(C(=O)c2ccccc2)C1)Nc1ccncc1 (centres unmarked) [BSS-TP101, 1-(6-(1-(benzoyl)pyrrolidin-3-yl)hexyl)-2-(4-pyridinyl)urea] |
| 23 | 29 | 13 | 27 | 35 | 10 | 30 | COc1cccc(OC)c1C(=O)N1CCC(CCCCCCNC(=O)Nc2ccncc2)C1 (centres unmarked) [BSS-TP102, 1-(6-(1-(2,6-dimethoxybenzoyl)pyrrolidin-3-yl)hexyl)-2-(4-pyridinyl) urea] |
| 28 | 50 | 31 | 88 | 43 | 15 | 36 | O=C(NCCCCCCC1CCN(C(=O)c2cccs2)C1)Nc1ccncc1 (centres unmarked) [BSS-TP103, 1-(6-(1-(2-thienylformyl)pyrrolidin-3-yl)hexyl)-2-(4-pyridinyl)urea] |
| 33 | 62 | 33 | 57 | 75 | 29 | 46 | O=C(NCCCCCCC1CCN(C(=O)c2ccc[nH]2)C1)Nc1ccncc1 (centres unmarked) [BSS-TP104, 1-(6-(1-(2-pyrrolylformyl)pyrrolidin-3-yl)hexyl)-2-(4-pyridinyl)urea] |
| 43 | 76 | 37 | 53 | 61 | 20 | 32 | O=C(NCCCCCCC1CCN(C(=O)c2ccco2)C1)Nc1ccncc1 (centres unmarked) [BSS-TP105, 1-(6-(1-(furoyl)pyrrolidin-3-yl)hexyl)-2-(4-pyridinyl)urea] |
| 68 | 97 | 46 | 66 | 119 | 47 | 58 | O=C(NCCCCCCC1CCN(C(=O)C2CCCN2)C1)Nc1ccncc1 (centres unmarked) [BSS-TP106, 1-(6-(1-(2-pyrrolidinylformyl)pyrrolidin-3-yl)hexyl)-2-(4-pyridinyl)urea] |
| 55 | 82 | 58 | 76 | 137 | 51 | 53 | O=C(NCCCCCCC1CCN(C(=O)C2CCCO2)C1)Nc1ccncc1 (centres unmarked) [BSS-TP107, 1-(6-(1-(2-tetrahydrofurylformyl)pyrrolidin-3-yl)hexyl)-2-(4-pyridinyl)urea] |
| 49 | 73 | 41 | 59 | 92 | 32 | 49 | O=C(NCCCCCCC1CCN(C(=O)C2CCCS2)C1)Nc1ccncc1 (centres unmarked) [BSS-TP108, 1-(6-(1-(2-tetrahydrothienylformyl)pyrrolidin-3-yl)hexyl)-2-(4-pyridinyl)urea] |
| 29 | 88 | 26 | 47 | 71 | 23 | 53 | O=C(NCCCCCCC1CCN(C(=O)c2ccccc2)C1)Nc1cccnc1 (centres unmarked) [BSS-TP109, 1-(6-(1-(benzoyl)pyrrolidin-3-yl)hexyl)-2-(3-pyridinyl)urea] |
